Patent US20250019369A1, “N-(4-aminocyclohexyl)pyrimidine-4-carboxamide derivatives as CD38 inhibitors” (Cerevance, Inc., priority 2021, published 2025)
Counter-ions that a name gives are not always drawn. Like-named read-outs stand apart in the source and are kept apart here.

How the values were obtained:
[1] = PK brain permeability in C57BL/6 mice after single oral gavage; format: in vivo; conditions: male, C57BL/6, mouse, 2 hours post dose; for concentration at 2 h: po, 10 mg/kg; for Kpu,u (unbound brain/plasma partition coefficient) at 2 h: oral 10 mg/kg, read-out: Kpu,u (unbound partitioning coefficient, Cb,u/Cp,u)
Experimental: The distribution of compounds into the brain in vivo was determined in C57BL/6 mice following single oral (po) gavage administration.
Test compounds were formulated at 1 mg/mL in 0.5% HPMC E4 M, 0.2% Tween 80 in water to achieve solutions or homogenous suspensions suitable for po administration.
Formulations were administered to 3 male C57BL/6 mice at a volume of 10 mL/kg resulting in a dose level of 10 mg/kg. Blood samples were collected at 1 and 2 hours post dose into tubes containing K2EDTA as anticoagulant, processed to plasma and stored at −60° C. or lower until LC-MS/MS analysis. Brains were harvested 2 hours post dose, rinsed with saline, dried, weighed and homogenised under ice cold conditions. Brain homogenates were stored at −60° C. or lower until LC-MS/MS analysis.
Dose formulation concentrations were verified using a LC-UV or LC-MS/MS method. Test compound concentrations in plasma and brain homogenate were quantitatively determined using LC-MS/MS methods developed in individual matrices against calibration curves with QC samples included and acceptance criteria as per CRO SOPs. Concentrations in brain homogenate were corrected for the dilution factor used to prepare the homogenate to give concentrations in whole brain tissue.
Plasma and brain concentration versus time data were reported and plotted in excel. The brain to plasma ratio at 2 hours post dose was calculated for each animal using the following equation:
Brain:plasma=brain concentration (ng/g) at 2 h/plasma concentration (ng/mL) at 2 h
As only unbound test compound is available to exert an effect on the target, unbound plasma (Cp,u) and unbound brain (Cb,u) concentrations were calculated by correcting the total concentrations for the unbound fraction in plasma (fu,p) or brain (fu,b) determined from in vitro plasma protein or brain tissue binding assays using the following equations: […]
The unbound partitioning coefficient (Kpu,u) was then calculated based on the ratio of Cb,u to Cp,u using the following equation: […]
In these studies, mice were orally administrated a 10 mg/kg dose and sacrificed 2 hours post dose and tissue samples (brain homogenate and plasma) were analyzed subsequently as described above.

[2] = Tissue binding assay, brain homogenate (equilibrium dialysis); format: in vitro ADME; conditions: dialysis 4 hours at 37° C., dilution factor 4
Experimental: (§1) Buffer preparation. A basic solution was prepared by dissolving 14.2 g/L Na2HPO4 and 8.77 g/L NaCl in deionized H2O. An acidic solution was prepared by dissolving 15.6 g/L NaH2PO4·2H2O and 8.77 g/L NaCl in deionized H2O. Using the acidic solution, the basic solution was then titrated to pH 7.4±0.1 and stored at 4° C. for up to 1 month. The stop solution was 100% CH3CN containing 200 ng/mL tolbutamide, 200 ng/mL labetalol and 50 ng/mL metformin.
(§2) Test method. Dialysis membrane strips were soaked in ultra-pure water at room temperature for ˜1 hour. Each membrane strip containing 2 membranes was separated and soaked in 20:80 EtOH/H2O (v/v) for ˜20 min, after which they were ready for use or were stored in the solution at 2-8° C. for up to 1 month. Prior to the experiment, the membrane was rinsed and soaked for 20 min in ultra-pure water. On the day of experiment, brain homogenate was thawed in a water bath at room temperature and incubated at 37° C. for 10 min before use. Test and control compounds were dissolved in DMSO to achieve 10 mM stock solutions. DMSO working solutions were prepared at 400 μM by diluting 10 μL of stock solution. To prepare the time zero (t=0) samples to be used for recovery determination, 50 μL aliquots of loading matrix were transferred in triplicate to the sample collection plate. The samples were immediately matched with opposite blank buffer to obtain a final volume of 100 μL of 1:1 matrix/dialysis buffer (v/v) in each well. 500 μL of stop solution were added to these t=0 samples. They were then stored at 2-8° C. pending further processes along with other post-dialysis samples. To load the dialysis device, an aliquot of 150 μL of the loading matrix was transferred to the donor side of each dialysis well in triplicate, and 150 μL of the dialysis buffer was loaded to the receiver side of the well. The dialysis plate was placed in a humidified incubator at 37° C. with 5% CO2 on a shaking platform that rotated slowly (about 100 rpm) for 4 hours. At the end of the dialysis, aliquots of 50 μL of samples were taken from both the buffer side and the matrix side of the dialysis device. These samples were transferred into new 96-well plates. Each sample was mixed with an equal volume of opposite blank matrix (buffer or matrix) to reach a final volume of 100 μL of 1:1 matrix/dialysis buffer (v/v) in each well. All samples were further processed by adding 500 μL of stop solution containing internal standards. The mixture was vortexed and centrifuged at 4000 rpm for about 20 min. An aliquot of 100 μL of supernatant of all the samples was then removed for LC-MS/MS analysis. The single blank samples were prepared by transferring 50 μL of blank matrix to a 96-well plate and adding 50 μL of blank PBS buffer to each well. Then the matrix-matched samples were further processed by adding 500 μL of stop solution containing internal standards, following the same sample processing method as the dialysis samples.
(§3) Data analysis. The % undiluted unbound, % undiluted bound and % recovery were calculated using the following equations:
(§4) % Undiluted Unbound=100*1/D/((1/(F/T)−1)+1/D)
(§5) % Undiluted Bound=100−% Undiluted Unbound
(§6) where F is the analyte concentration or peak area ratio of analyte/internal standard on the buffer (receiver) side of the membrane; T is the analyte concentration or peak area ratio of analyte/internal standard on the matrix (donor) side of the membrane; To is the analyte concentration or the peak area ratio of analyte/internal standard in the loading matrix sample at time zero; and D is the dilution factor determined as 4 in this assay.

[3] = Tissue binding assay, plasma (equilibrium dialysis); format: in vitro ADME; conditions: dialysis 4 hours at 37° C.
Experimental: [The source words this procedure for another target and reports this target under the same test.] as §1, §2, §3, §4, §5, §6

[4] = biological target: Recombinant mouse CD38 (Mus musculus (Mouse), UniProt P56528); assay: Mouse CD38 hydrolase assay (fluorescence, ε-NAD substrate); format: biochemical; conditions: recombinant mouse CD38 0.4 nM, 12 μM ε-NAD, 30 min preincubation at 25° C., pH 7.4
Experimental: (§7) The ability of test compounds to inhibit mouse CD38 hydrolase activity was measured in a fluorescence-based assay using non-physiological NAD^+ substrate analogue 1,N^6-etheno NAD^+ (ε-NAD). Recombinant mouse CD38 (0.4 nM) was preincubated with test compounds in 384-well black microplates for 30 min at 25° C. in PBS (—Ca^2+/Mg^2+) containing 0.005% BSA (pH 7.4). CD38 hydrolase activity was initiated by addition of 12 μM ε-NAD, which yields the fluorescent product 1,N^6-etheno ADP-ribose. Formation of fluorescent product was followed using ClarioStar Plus (BMG) microplate reader by reading fluorescence (excitation λ=300 nm; emission λ=410 nm) at two time points, one immediately after substrate addition (t=0) and one at 6 min (t=6).
(§8) Data was analysed by subtracting the values detected at t=0 from t=6 to correct for variation in baseline fluorescence, and fluorescence values were converted to percent inhibition using the average of high signal (CD38 and ε-NAD) and low signal (CD38 and ε-NAD in the presence of a tool CD38 inhibitor) control wells. IC50 values were determined from a 10-point, half log concentration response curve with a four-parameter logistic equation.

[5] = biological target: Recombinant human CD38 (Homo sapiens (Human), UniProt P28907); assay: Human CD38 hydrolase assay (fluorescence, ε-NAD substrate); format: biochemical; conditions: recombinant human CD38 0.8 nM, 4 μM ε-NAD, 30 min preincubation at 25° C., pH 7.4
Experimental: as §7, with “inhibit human” for “inhibit mouse”, “Recombinant human” for “Recombinant mouse”, “CD38 (0.8” for “CD38 (0.4”, “of 4” for “of 12”, “at 10” for “at 6”, “min (t=10).” for “min (t=6).”
as §8, with “t=10” for “t=6”, “fluorescence. Fluorescence” for “fluorescence, and fluorescence”

[6] = brain, read-out: total brain conc.
[7] = brain, total corrected for unbound fraction in brain, read-out: free brain conc.
[8] = plasma, read-out: total plasma conc.
[9] = plasma, total corrected for unbound fraction in plasma, read-out: free plasma conc.

Recombinant human CD38, sequence (P28907 whole entry): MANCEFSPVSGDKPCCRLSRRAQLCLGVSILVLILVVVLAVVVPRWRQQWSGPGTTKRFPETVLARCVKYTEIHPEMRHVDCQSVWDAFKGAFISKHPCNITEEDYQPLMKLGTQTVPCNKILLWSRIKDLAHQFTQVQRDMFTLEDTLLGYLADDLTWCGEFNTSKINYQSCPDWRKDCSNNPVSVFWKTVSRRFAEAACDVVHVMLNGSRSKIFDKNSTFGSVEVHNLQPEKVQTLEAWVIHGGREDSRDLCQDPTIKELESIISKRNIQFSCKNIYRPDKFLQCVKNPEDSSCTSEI
Recombinant mouse CD38, sequence (P56528 whole entry): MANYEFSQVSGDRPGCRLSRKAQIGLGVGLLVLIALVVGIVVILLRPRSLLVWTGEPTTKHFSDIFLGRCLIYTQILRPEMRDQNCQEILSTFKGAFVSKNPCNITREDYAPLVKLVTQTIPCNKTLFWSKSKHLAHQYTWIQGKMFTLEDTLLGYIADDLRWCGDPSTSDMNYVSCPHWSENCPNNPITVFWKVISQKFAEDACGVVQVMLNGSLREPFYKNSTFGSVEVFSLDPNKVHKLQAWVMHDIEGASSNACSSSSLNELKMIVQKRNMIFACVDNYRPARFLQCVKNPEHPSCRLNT

Row | concentration at 2 h [1, 6] [nM] | concentration at 2 h [1, 7] [nM] | Kpu,u (unbound brain/plasma partition coefficient) at 2 h [1] | concentration at 2 h [1, 8] [nM] | concentration at 2 h [1, 9] [nM] | Mouse brain (% unbound) [2] [% unbound] | Mouse plasma (% unbound) [3] [% unbound] | IC50 [4] [nM] | IC50 [5] [nM] | Structure (SMILES)
1 | 77 | 10 | 0.08 | 1680 | 115 | 13.6 | 6.9 |  |  | Cc1cc(C(=O)N[C@H]2CC[C@H](OC(F)F)CC2)nc(-n2ccnc2)n1 [Example 17, N-((1r,4r)-4-(difluoromethoxy)cyclohexyl)-2-(1H-imidazol-1-yl)-6-methyl-pyrimidine-4-carboxamide, reference compound]
2 | 430 | 122 | 0.03 | 13000 | 3290 | 28.4 | 25.3 |  |  | Cc1cc(C(=O)N[C@H]2CC[C@](C)(O)CC2)nc(-n2ccnc2)n1 [Example 18, N-((1r,4r)-4-hydroxy-4-methylcyclohexyl)-2-(1H-imidazol-1-yl)-6-methyl-pyrimidine-4-carboxamide, reference compound]
3 |  |  |  |  |  |  |  | ≤ 40 | ≤ 1000 | Cc1cc(C(=O)N[C@H]2CC[C@H](N)CC2)nc(-n2ccnc2)n1 [Example 27, N-((1r,4r)-4-aminocyclohexyl)-2-(1H-imidazol-1-yl)-6-methyl-pyrimidine-4-carboxamide Formate]
